Reference: patent US5070078A, “Antiviral compounds” (Burroughs Wellcome Co., priority 1987, dated 1991)

How the values were obtained:
adenovirus of serotype 8 = test: anti-adenoviral activity, plaque assay in human epithelial cell line NCTC 2544 (EP); type: cell-based, adenovirus type 8
Experimental: The anti-adenoviral activity of Compound No. 1 referred to above was tested as follows:
(§1) Cells of human epithelial cell line NCTC 2544 (EP) were serially passaged from 75 cm^2 tissue culture flasks (Corning) at a spilt ratio of 1/20 every 7 days. The growth medium was Eagles BHK medium supplemented with 10% foetal bovine serum and contained 2.5% of 4.4% sodium bicarbonate solution together with 1% of penicillin (5000 IU ml^-1) and streptomycin (600 μg ml^-1) (Flow).
A stock of adenovirus of type 8 was prepared in 25 cm^2 tissue culture flasks. Flasks were seeded with 2×10^6 EP cells in growth medium and incubated overnight at 37° C. The medium was decanted and 1.0 ml of stock virus suspension was added to the flask. After 1.0 hr adsorption 10 ml of maintenance medium (as above but with 2% serum) was added to the flask.
The flask were incubated at 37° C. After 72 hrs the classical'bunch of grapes' cytopathic effect was visible. The flasks were then frozen and thawed 3 times to liberate the virus and stored at -70° C. Viral titres were usually of the order of 4×10^8 pfu ml^-1.
The plaque assay was performed in 50 mm diameter plastic tissue culture dishes which were initially seeded with 2×10^6 EP cells in growth medium and incubated overnight in 5% CO2 at 37° C. […]

[1] = Cytotoxicity Determination, trypan blue exclusion method; type: cell-based; conditions: human, NCTC 2544 cells, read-out: 50% cell culture inhibitory concentration
Experimental: as §1
Cytotoxicity was determined by means of the trypan blue exclusion method. NCTC 2544 cells were prepared in growth medium and aliquots added to […] tissue culture flasks at approximately 1×10^5 cells/ml. At 24 hours the flasks were divided and replenished with growth medium. One half of the flasks received growth medium containing 10 fold dilutions of compound thus exposing the cells to 1, 10, and 100 μM concentrations. At 24, 48, and 72 hours representative flasks were removed from the incubator and the monolayers washed to remove debris. The cells were resuspended in growth medium and aliquots mixed with an equal volume of trypan blue. Stained and unstained cells were counted in a haemocytometer. Cell counts were adjusted to cells/ml. An estimate of the growth and viability of treated and untreated cells was then made.

adenovirus serotype 5 = test: anti-adenovirus activity against serotype 5 (statement only); type: cell-based

IC50 (adenovirus of serotype 8; unidentified adenovirus, NCTC-2544, adenovirus serotype 8, EP cells, plaque assay): 0.005 µM
SMILES: Cc1cn([C@H]2C[C@H](F)[C@@H](CO)O2)c(=O)[nH]c1=O [Compound No. 1, 2',3'-dideoxy-3'-fluorothymidine]
anti-adenovirus activity (in words) (adenovirus of serotype 8; serotype 8): particularly high anti-adenovirus activity
CC50 at 72 h [1]: 38 µM
anti-adenovirus activity (in words) (adenovirus serotype 5): particularly high anti-adenovirus activity
